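Cells were grown in 96-well plates and exposed to each compound for 48 hours at five concentrations; endpoints were interpolated linearly between bracketing concentrations, or set to the highest concentration if not reached. GI50: concentration for 50% inhibition of growth. TGI marks complete inhibition of growth.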

Experiment in all cases: DTP human tumour cell line panel, 48 h
For experiment [1], the system named is HOP-62 NSCLC.
Experiment [2] relates to M14 melanoma.
Experiment [3] has as its system MOLT-4 leukemia.
Experiment [4] deals with OVCAR-4 ovarian.
The test system of experiment [5] is SK-MEL-28 melanoma.
Experiment [6] relates to SK-MEL-5 melanoma.
The subject of experiment [7] is SK-OV-3 ovarian.
Experiment [8] deals with ACHN renal.
Experiment [9] has as its system HOP-92 NSCLC.
In experiment [10] the test system is HCC-2998 colon.

A word on the TGI: it is the concentration at which net growth stops. A low value points to more potent growth arrest. Turning to `COc1ccc2c(c1)OCCC1=C2SCC2(C)CCN=C12` (stereo not drawn), the TGI in experiment [1], in [2], in experiment [3], in experiment [4], in [5] and in experiment [6] was more than 100 µM throughout. Further, the TGI in experiment [7] is more than 100 µM.
Take `C#CCN(C)C(=O)N(CC#C)N=O`: the total growth inhibition concentration (TGI) in experiment [8], in [1], in [9], in experiment [2], in [3] and in [4] was more than 100 µM throughout. Also, the TGI in experiment [5], in [6] and in experiment [7] was more than 100 µM throughout.
As a reminder, the GI50 is the concentration giving 50% growth inhibition. Regarding `Oc1ccc(Cl)cc1-c1cc(-c2ccc(F)cc2)n[nH]1`, the GI50 in experiment [8] was 2.34 µM; in experiment [10], 2.08 µM; in experiment [1], 2.98 µM; in experiment [2], 3.5 µM; in [3] it was 2.8 µM; in experiment [4] it was 0.593 µM. The GI50 in experiment [5] is 8.35 µM; in experiment [6] it was 1.93 µM; in experiment [7], 1.99 µM. Also, the concentration for total growth inhibition (TGI) in experiment [8] was 7.2 µM; in experiment [10], 5.95 µM; in experiment [1] it was 10.9 µM; in experiment [2], 17.2 µM; in [3] it was 41.4 µM; in experiment [4], more than 100 µM. The TGI is more than 100 µM in experiment [5], 5.55 µM in experiment [6] and 5.21 µM in experiment [7].
For the compound `CN(C)CCNc1nc(-c2cccs2)cc(-c2cccs2)n1`, the concentration for total growth inhibition (TGI) in experiment [10] turned out to be 25.3 µM; in experiment [1] it was 40.7 µM; in experiment [9] it was 8.7 µM; in [2], 27 µM; in experiment [3], 13.4 µM; in experiment [5], 30 µM. For the same compound, the TGI in experiment [6] was 29.6 µM.
As for `C1CC[N-]CC1.CC(=N\O)/C(C)=N/O.CC(=N\O)/C(C)=N/O.[CH2-]CCN1CCOCC1.[Co+2]`, the GI50 in experiment [8] is more than 100 µM; in experiment [1] it was more than 100 µM; in [9], more than 100 µM; in experiment [2] it was more than 100 µM; in experiment [3], 5.91 µM; in experiment [4], more than 100 µM. Moreover, the GI50 in experiment [5], in experiment [6] and in experiment [7] was more than 100 µM throughout. Further, the TGI was more than 100 µM in [8]; more than 100 µM in [1]; more than 100 µM in experiment [9]; more than 100 µM in experiment [2]; 39.5 µM in experiment [3]; more than 100 µM in experiment [4]. Also, the TGI in experiment [5], in experiment [6] and in [7] was more than 100 µM each time.
Regarding `ClCC#CCSc1ncnc2c1ncn2CC#CCCl`, the GI50 in experiment [8] is 1.98 µM; in experiment [10] it was 1.67 µM; in experiment [1], 1.28 µM; in [2] it was 1.47 µM; in experiment [3], 2.68 µM; in experiment [4] it was 2.12 µM. In addition, the GI50 in [5] is 1.61 µM; in experiment [6] it was 1.29 µM; in experiment [7], 1.86 µM. The TGI in [8] came to 5.5 µM; in experiment [10], 3.11 µM; in experiment [1], 2.67 µM; in experiment [2], 3.13 µM; in [3] it was 14.1 µM; in experiment [4], 8.29 µM. Besides, the values for the concentration for total growth inhibition (TGI) in [5], in experiment [6] and in experiment [7] were 3.14 µM, 2.66 µM and 3.95 µM, respectively.
`CCc1nc(-n2c(-c3ccccc3)nc3ccccc3c2=O)nc(N)c1-c1ccc(Cl)cc1`: the GI50 is 5.53 µM in experiment [8]; 14.7 µM in experiment [1]; 13.4 µM in [9]; 6.22 µM in experiment [2]; 6.13 µM in experiment [3]; more than 100 µM in [4]. Moreover, the GI50 in experiment [5] is more than 100 µM; in experiment [6], 5.6 µM. Also, the concentration for total growth inhibition (TGI) in [8], in experiment [1], in experiment [9], in experiment [2], in experiment [3] and in experiment [4] was more than 100 µM throughout. Also, the total growth inhibition concentration (TGI) in experiment [5] was more than 100 µM; in experiment [6], 33 µM.
`C[n+]1c(N)n(C(=O)OCc2ccccc2)c(=O)c2c1ncn2C(=O)OCc1ccccc1`: the TGI in [8], in [10], in [1], in experiment [2], in experiment [3] and in experiment [4] was more than 100 µM in each case. The total growth inhibition concentration (TGI) in [5], in [6] and in [7] was more than 100 µM each time.
Regarding `Cc1ccc(NC(=O)CCC(=O)C(C#N)c2ccccc2)cc1C` (stereo not drawn), the TGI in experiment [8], in experiment [10], in [9], in experiment [2], in experiment [3] and in experiment [4] was more than 100 µM each time. For the same compound, the TGI in experiment [6] and in [7] was more than 100 µM each time.
`O=C1c2ccn(CCCCN3CCC(O)CC3)c2C(=O)c2c1c(O)c1ccccc1c2O`: the GI50 was 15.2 µM in experiment [8]; 20.6 µM in experiment [10]; 16.3 µM in [1]; 8.95 µM in [9]; 1.95 µM in experiment [2]; 17.9 µM in experiment [4]. Moreover, the GI50 is 13.3 µM in experiment [5], 16.6 µM in experiment [6] and 41.3 µM in experiment [7]. Further, the concentration for total growth inhibition (TGI) is 32.8 µM in experiment [8]; more than 59.5 µM in [10]; 34.9 µM in experiment [1]; 41.1 µM in experiment [9]; 3.69 µM in [2]; more than 64.4 µM in [4]. The TGI was more than 41 µM in experiment [5], 96.2 µM in [6] and more than 74.6 µM in experiment [7].

The record behind these values is PubChem BioAssay (NCI).
